# Biological target: Melanocortin receptor 4 (Mus musculus, UniProt P56450)
# Experiment: ChEBML_104255
# Text: Agonistic activity evaluated at melanocortin 4 receptor (MC4R) of mouse HEK293 cells
# Chain of Melanocortin receptor 4 (P56450 whole entry): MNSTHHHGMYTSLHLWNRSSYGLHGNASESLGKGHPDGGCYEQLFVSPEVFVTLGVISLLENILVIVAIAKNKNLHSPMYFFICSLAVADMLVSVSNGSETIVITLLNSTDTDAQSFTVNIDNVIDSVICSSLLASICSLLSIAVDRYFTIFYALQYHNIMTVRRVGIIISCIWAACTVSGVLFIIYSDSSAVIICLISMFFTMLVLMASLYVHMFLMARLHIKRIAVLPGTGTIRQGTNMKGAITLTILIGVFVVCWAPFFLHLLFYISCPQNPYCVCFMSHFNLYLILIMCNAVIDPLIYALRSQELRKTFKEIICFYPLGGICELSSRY
smiles,measurement,value
CC(=O)N[C@@H](Cc1cnc[nH]1)C(=O)N[C@H](Cc1ccccc1)C(=O)N[C@@H](CCCN=C(N)N)C(=O)N[C@@H](Cc1c[nH]c2ccccc12)C(N)=O [(S)-2-{(R)-2-[(S)-2-Acetylamino-3-(1H-imidazol-4-yl)-propionylamino]-3-phenyl-propionylamino}-5-guanidino-pentanoic acid [(S)-1-carbamoyl-2-(1H-indol-3-yl)-ethyl]-amide],EC50,17 nM

# — BindingDB's records for doi:10.1016/j.bmcl.2003.08.078 (University of Florida, 2003)
